Results taken from paper PMC6345492, “Thioguanine-based DENV-2 NS2B/NS3 protease inhibitors: Virtual screening, synthesis, biological evaluation and molecular modelling” (PLoS ONE, 2019).
Like-named read-outs stand apart in the source and are kept apart here.

Key:
DENV-2 NS2B/NS3pro [1] = biological target: T1, DENV-2 NS2B/NS3pro (Dengue virus type 2, UniProt P14340); experiment: DENV-2 NS2B/NS3pro protease inhibition assay (fluorogenic Boc-GRR-MCA substrate); assay type: biochemical; conditions: for IC50: 3 μM protease, 25 μM substrate
T1 construct: pQE30.CF40.gly(T).NS3pro expression plasmid; 6x-His (N); glycine linker (gly(T)) joining CF40 to NS3pro (C); made in house; host or cells: Escherichia coli strain XL1-Blue
T1 sequence (P14340 1398-1437): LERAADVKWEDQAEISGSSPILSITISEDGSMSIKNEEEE
T1 sequence (P14340 1476-1653): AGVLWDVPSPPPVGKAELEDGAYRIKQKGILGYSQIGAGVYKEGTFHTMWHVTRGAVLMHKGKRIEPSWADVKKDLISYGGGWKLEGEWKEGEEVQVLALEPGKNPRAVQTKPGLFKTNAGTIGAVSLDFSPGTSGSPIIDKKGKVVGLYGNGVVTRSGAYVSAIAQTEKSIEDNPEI
Procedure: The DENV-2 NS2B/NS3pro expression was carried out according to the established method by Yusof et al., (2000) with minor modifications according to published articles. The plasmid encoding the NS2B/NS3 protease sequence from DENV-2 was transformed into Escherichia coli strain XL1-Blue transformed with pQE30.CF40.gly(T).NS3pro expression plasmid were grown in LB medium containing 10 μg/ml ampicillin at 37°C until the OD600 reached 0.6. First, the cells were incubated at 37°C, 200 rpm until OD600 reached ~0.6. One ml of isopropyl-β-D-thiogalactopyranoside (0.5 mM in LB medium) was added to the bacterial cells for 2 hours to induce protein expression. Expression of the recombinant protein was induced by the addition of […] IPTG and the culture was incubated for 2 hours.
The cells were harvested by centrifugation at 8000 rpm (Sorvall RC-5B Refrigerated Superspeed centrifuge) for 15 minutes at […]. The cell pellets were thawed (1 g) and resuspended in lysis buffer (5 mL) followed by mixing them using vortex until milky. For purification, cells were lysed by sonication conducting (6 times 15-second pulse, duty cycle 10%, output control no 3) using Ultrasonic Cell Disruptor, Branson Sonifier 450, Germany. The lysate was incubated on ice for 1 hour and then centrifuged at 8000 rpm for 1 hour at 4°C. The soluble 6x-His-NS2B/NS3protease in its native form was filtered ([…]), batch-bound to 2 x 2 ml Ni^2+-NTA (nickel-nitrilotriacetic acid) resin (pre-equilibrated with column buffer) and incubated overnight at 4°C. The resin was cleaned up from the unbound fraction by centrifugation and the resin with bound protein was collected and loaded into columns (Bio-Rad; 1 x 3 cm). The gradient technique columns were washed extensively with 3 x 15 ml of wash buffer and further eluted with 10 ml of elution buffer for each column while being monitored using Bio-Rad Bradford protein assay. The purified protein was then analysed with 12% SDS-PAGE, pooled and stored at -80°C for further use in the dengue protease activity and inhibition studies. The dengue protease activity assay was developed as previously described with a slight modification. Briefly, the assay system comprised of 200 mM Tris-HCl (pH 8.5) buffer, DENV-2 NS2B/NS3pro and Boc-GRR-MCA as the substrate. Protease optimum assay was executed to ascertain maximum protease activity at constant concentration of the substrate (25 μM). The protease concentrations were varied within 0–10 μM. The 7-Amino-4-methylcoumarin (AMC) produced was measured as fluorescence intensity at λexcitation of 340 nm and λemission of 440 nm by using ELISA modulus microplate reader.
The compounds were also checked for its requirement to pass the pan assay interference compounds (PAINS) (http://cbligand.org/PAINS/) before tested for their inhibition activities against DENV-2 NS2B/NS3pro at a range of concentrations (0 to 300 μg/mL). […] The concentration of the protease being used was 3 μM initially incubated with the compound for 10 minutes at 37°C with 200 rpm of rotation. Subsequently, 25 μM of the substrate was added and the incubation was further prolonged for 60 minutes. The fluorescence intensity at 340/ 440 nm was measured as the AMC byproduct was released upon the peptide substrate cleavage by the protease. The experiments were triplicated and Panduratin A was used as the positive control.

DENV-2 NS2B/NS3pro [2] = biological target: T1, DENV-2 NS2B/NS3pro; set-up: method as in PMID 16621533; conditions: competitive inhibition; cited from earlier work
[3] = TG derivatives, Table 2, read-out: IC50
[4] = six newly designed compounds, Table 3, read-out: IC50

SMILES | IC50 (DENV-2 NS2B/NS3pro [1]; [3]) | IC50 (DENV-2 NS2B/NS3pro [1]; [4]) | further results
COc1cccc(S(=O)(=O)Nc2nc(S)c3nc[nH]c3n2)c1 [Compound 4] | 68 µM | – | –
COc1ccc(S(=O)(=O)Nc2nc(S)c3nc[nH]c3n2)cc1 [Compound 5] | 55 µM | – | –
CCC(=O)Nc1nc(SC(=O)CC)c2nc[nH]c2n1 [Compound 16] | – | 97 µM | –
CC(C)C(=O)Nc1nc(SC(=O)C(C)C)c2nc[nH]c2n1 [Compound 17] | – | 80 µM | –
CCCCC(=O)Nc1nc(SC(=O)CCCC)c2nc[nH]c2n1 [Compound 18] | – | 0.38 µM | –
CCCCC(=O)Nc1nc(SCc2ccccc2)c2nc[nH]c2n1 [Compound 19] | – | 54 µM | –
CC(C)Cn1cnc2c(SCc3cccc4ccccc34)nc(N)nc21 [Compound 20] | – | 258 µM | –
CCCCC(=O)Nc1nc(SCc2ccccc2)c2ncn(Cc3ccccc3)c2n1 [Compound 21] | – | 16 µM | –
COc1cc(O)c(C(=O)[C@@H]2[C@H](CC=C(C)C)C(C)=CC[C@H]2c2ccccc2)c(O)c1 [Panduratin A, panduratin A, reference compound] | – | – | IC50 (DENV-2 NS2B/NS3pro [1]; NCI diversity set hits, read-out: Experimental IC50): 56 µM; Ki (DENV-2 NS2B/NS3pro [2]): 25 µM
Nc1nc2nc[nH]c2c(=S)[nH]1 [TG, thioguanine] | 753 µM | – | inhibition at 200 µg/mL (DENV-2 NS2B/NS3pro [1]): 56%
